Source: patent US7759337B2, “Phthalazine compounds and methods of use” (Amgen Inc., priority 2005, dated 2010)

system: production of TNF by monocytes activated with bacterial lipopolysaccharide (LPS); assay: Lipopolysaccharide-activated monocyte TNF production assay; format: cell-based; conditions: Homo sapiens; whole blood monocyte assay (LPS induced TNF release)
Experimental: Test compounds were evaluated in vitro for the ability to inhibit the production of TNF by monocytes activated with bacterial lipopolysaccharide (LPS). Fresh residual source leukocytes (a byproduct of plateletpheresis) were obtained from a local blood bank, and peripheral blood mononuclear cells (PBMCs) were isolated by density gradient centrifugation on Ficol-Paque Plus (Pharmacia). PBMCs were suspended at 2×10^6/mL in DMEM supplemented to contain 2% FCS, 10 mM, 0.3 mg/mL […], 100 U/mL penicillin G and […] streptomycin sulfate (complete media). Cells were plated into Falcon flat bottom, 96 well culture plates (200 μL/well) and cultured overnight at 37° C. and 6% CO2. Non-adherent cells were removed by washing with 200 μl/well of fresh medium.
Test compounds were dissolved in […]. Compound stock solutions were prepared to an initial concentration of […]. Stocks were diluted initially to 20-200 μM in complete media. Nine two-fold serial dilutions of each compound were then prepared in complete medium.
One hundred microliters of each test compound dilution were added to microtiter wells containing adherent monocytes and 100 μL complete medium. Monocytes were cultured with test compounds for 60 min at which time 25 μL of complete medium containing 30 ng/mL lipopolysaccharide from E. coli K532 were added to each well. Cells were cultured an additional 4 hrs. Culture supernatants were then removed and TNF presence in the supernatants was quantified using an ELISA.
Flat bottom, 96 well Corning High Binding ELISA plates were coated overnight (4° C.) with 150 μL/well of 3 μg/mL murine anti-human TNF-α MAb (R&D Systems #MAB210). Wells were then blocked for 1 h at room temperature with 200 μL/well of CaCl2-free ELISA buffer supplemented to contain 20 mg/mL BSA (standard ELISA buffer: […], 150 mM NaCl, 2 mM CaCl2, 0.15 mM thimerosal, pH 7.4). Plates were washed and replenished with 100 μL of test supernatants (diluted 1:3) or standards. Standards consisted of eleven 1.5-fold serial dilutions from a stock of I ng/mL recombinant human TNF (R&D Systems). Plates were incubated at room temperature for 1 h on orbital shaker (300 rpm), washed and replenished with 100 μL/well of 0.5 μg/mL goat anti-human TNF-α (R&D systems #AB-210-NA) biotinylated at a 4:1 ratio. Plates were incubated for 40 min, washed and replenished with 100 μL/well of alkaline phosphatase-conjugated streptavidin (Jackson ImmunoResearch #016-050-084) at 0.02 μg/mL. Plates were incubated 30 min, washed and replenished with 200 μL/well of 1 mg/mL of p-nitrophenyl phosphate. After 30 min, plates were read at 405 nm on a Vmax plate reader.
Standard curve data were fit to a second order polynomial and unknown TNF-α concentrations determined from their OD by solving this equation for concentration. TNF concentrations were then plotted vs. test compound concentration using a second order polynomial. This equation was then used to calculate the concentration of test compounds causing a 50% reduction in TNF production.

Row | SMILES | IC50
1 | Cc1ccc(C(=O)NC2CC2)cc1-c1ccc2c(N3CCn4c(nnc4C(F)(F)F)C3)nncc2c1 [Example 104, N-cyclopropyl-4-methyl-3-(1-(3-(trifluoromethyl)-5,6-dihydro-[1,2,4]triazolo[4,3-a]pyrazin-7(8H)-yl)phthalazin-6-yl)benzamide] | ≤ 5 µM
2 | Cc1ccc(C(=O)NC2CC2)cc1-c1ccc2c(N3CCCC3C)nncc2c1 (centres unmarked) [Example 105, N-cyclopropyl-4-methyl-3-(1-(2-methylpyrrolidin-1-yl)phthalazin-6-yl)benzamide] | ≤ 5 µM
3 | Cc1ccc(S(N)(=O)=O)cc1-c1ccc2c(N3CCOCC3)nncc2c1 [Example 106, 4-Methyl-3-(1-morpholinophthalazin-6-yl)benzenesulfonamide] | ≤ 5 µM
4 | Cc1ccc(C(=O)Nc2ccon2)cc1-c1ccc2c(N3CCOCC3)nncc2c1 [Example 108, N-(Isoxazol-3-yl)-4-methyl-3-(1-morpholinophthalazin-6-yl)benzamide] | ≤ 5 µM
5 | Cc1ccc(C(=S)NC2CC2)cc1-c1ccc2c(N3CCOCC3)nncc2c1 [Example 109, N-Cyclopropyl-4-methyl-3-(1-morpholinophthalazin-6-yl)benzothioamide] | ≤ 5 µM
6 | Cc1ccc(C(=O)NC2CC2)cc1-c1ccc2c(N3CCNC[C@H]3C)nncc2c1 [Example 110, N-cyclopropyl-4-methyl-3-{1-[(2R)-2-methylpiperazin-1-yl]phthalazin-6-yl}benzamide] | ≤ 5 µM
7 | Cc1ccc(C(=O)NC2CC2)cc1-c1ccc2c(NCCN3CCOCC3)nncc2c1 [Example 111, N-cyclopropyl-4-methyl-3-{1-[(2-morpholin-4-ylethyl)amino]phthalazin-6-yl}benzamide] | ≤ 5 µM
8 | Cc1ccc(C(=O)NC2CC2)cc1-c1ccc2c(N3C[C@@H](C)OC[C@@H]3C)nncc2c1 [Example 112, N-cyclopropyl-3-{1-[(2R,5S)-2,5-dimethylmorpholin-4-yl]phthalazin-6-yl}-4-methylbenzamide] | ≤ 5 µM
9 | Cc1cnc(C(=O)NC2CC2)cc1-c1ccc2c(N3C[C@@H](C)OC[C@H]3C)nncc2c1 [Example 113, N-cyclopropyl-4-{1-[(2R,5R)-2,5-dimethylmorpholin-4-yl]phthalazin-6-yl}-5-methylpyridine-2-carboxamide] | ≤ 5 µM
10 | Cc1ccc(C(=O)NC2CC2)cc1-c1ccc2c(N3CCC(C(N)=O)CC3)nncc2c1 [Example 114, 1-(6-{5-[(cyclopropylamino)carbonyl]-2-methylphenyl}phthalazin-1-yl)piperidine-4-carboxamide] | ≤ 5 µM
11 | Cc1ccc(C(N)=O)cc1-c1ccc2c(N3C[C@@H]4C[C@H]3CO4)nncc2c1 [Example 115, 4-methyl-3-{1-[(1S,4S)-2-oxa-5-azabicyclo[2.2.1]hept-5-yl]phthalazin-6-yl}benzamide] | ≤ 5 µM
12 | Cc1ccc(C(N)=O)cc1-c1ccc2c(N3CCNC(=O)C3)nncc2c1 [Example 116, 4-methyl-3-[1-(3-oxopiperazin-1-yl)phthalazin-6-yl]benzamide] | ≤ 5 µM
13 | CCNC(=O)c1ccc(C)c(-c2ccc3c(NC(C)C)nncc3c2)c1 [Example 117, N-ethyl-3-[1-(isopropylamino)phthalazin-6-yl]-4-methylbenzamide] | ≤ 5 µM
14 | COc1nncc2cc(-c3cc(C(N)=O)ccc3C)ccc12 [Example 118, 3-(1-methoxyphthalazin-6-yl)-4-methylbenzamide] | ≤ 5 µM
15 | Cc1ccc(C(N)=O)cc1-c1ccc2c(N3C[C@H](C)OC[C@@H]3C)nncc2c1 [Example 119, 3-{1-[(2S,5S)-2,5-dimethylmorpholin-4-yl]phthalazin-6-yl}-4-methylbenzamide] | ≤ 5 µM
16 | Cc1ccc(C(=O)NC2CC2)cc1-c1ccc2c(N3C[C@@H]4C[C@H]3CO4)nncc2c1 [Example 120, N-cyclopropyl-4-methyl-3-{1-[(1S,4S)-2-oxa-5-azabicyclo[2.2.1]hept-5-yl]phthalazin-6-yl}benzamide] | ≤ 5 µM

Row | SMILES | IC50
17 | Cc1cc(C)c(-c2nncc3cc(-c4cc(C(=O)NC5CC5)ccc4C)ccc23)c(C)c1 [Example 121, N-cyclopropyl-3-(1-mesitylphthalazin-6-yl)-4-methylbenzamide] | ≤ 5 µM
18 | Cc1ccc(C(N)=O)cc1-c1ccc2c(N3C[C@@H](C)NC[C@@H]3C)nncc2c1 [Example 122, 3-{1-[(2S,5R)-2,5-dimethylpiperazin-1-yl]phthalazin-6-yl}-4-methylbenzamide] | ≤ 5 µM
19 | Cc1ccc(C(=O)NC2CC2)cc1-c1ccc2c(N3C[C@H](C)OC[C@@H]3C)nncc2c1 [Example 123, N-cyclopropyl-3-{1-[(2S,5S)-2,5-dimethylmorpholin-4-yl]phthalazin-6-yl}-4-methylbenzamide] | ≤ 5 µM
20 | Cc1ccc(C(=O)NC2CC2)cc1-c1ccc2c(N3CCN(C(=O)Nc4ccccc4)CC3)nncc2c1 [Example 124, 4-(6-{5-[(cyclopropylamino)carbonyl]-2-methylphenyl}phthalazin-1-yl)-N-phenylpiperazine-1-carboxamide] | ≤ 5 µM
21 | Cc1ccc(C(=O)NC2CC2)cc1-c1ccc2c(N3C[C@@H]4C[C@H]3CN4)nncc2c1 [Example 125, N-cyclopropyl-3-{1-[(1S,4S)-2,5-diazabicyclo[2.2.1]hept-2-yl]phthalazin-6-yl}-4-methylbenzamide] | ≤ 5 µM
22 | Cc1ccc(C(=O)NC2CC2)cc1-c1ccc2c(N3C[C@@H]4C[C@H]3CN4C(=O)OC(C)(C)C)nncc2c1 [Example 126, tert-butyl (1S,4S)-5-(6-{5-[(cyclopropylamino)carbonyl]-2-methylphenyl}phthalazin-1-yl)-2,5-diazabicyclo[2.2.1]heptane-2-carboxylate] | ≤ 5 µM
23 | Cc1ccc(C(N)=O)cc1-c1ccc2c(N3CCS(=O)(=O)CC3)nncc2c1 [Example 127, 3-[1-(1,1-dioxidothiomorpholin-4-yl)phthalazin-6-yl]-4-methylbenzamide] | ≤ 5 µM
24 | Cc1ccc(C(N)=O)cc1-c1ccc2c(N3CCSCC3)nncc2c1 [Example 128, 4-methyl-3-(1-thiomorpholin-4-ylphthalazin-6-yl)benzamide] | ≤ 5 µM
25 | CCNC(=O)N1CCN(c2nncc3cc(-c4cc(C(=O)NC5CC5)ccc4C)ccc23)CC1 [Example 129, 4-(6-{5-[(cyclopropylamino)carbonyl]-2-methylphenyl}phthalazin-1-yl)-N-ethylpiperazine-1-carboxamide] | ≤ 5 µM
26 | CC[C@@H]1CCCCN1c1nncc2cc(-c3cc(C(=O)NC4CC4)ccc3C)ccc12 [Example 130, N-cyclopropyl-3-{1-[(2R)-2-ethylpiperidin-1-yl]phthalazin-6-yl}-4-methylbenzamide] | ≤ 5 µM
27 | Cc1ccc(-c2nncc3cc(-c4cc(C(=O)NC5CC5)ccc4C)ccc23)cc1 [Example 131, N-cyclopropyl-4-methyl-3-[1-(4-methylphenyl)phthalazin-6-yl]benzamide] | ≤ 5 µM
28 | Cc1ccc(C(=O)NC2CC2)cc1-c1ccc2c(N3CCC[C@@H](C(N)=O)C3)nncc2c1 [Example 132, (3R)-1-(6-{5-[(cyclopropylamino)carbonyl]-2-methylphenyl}phthalazin-1-yl)piperidine-3-carboxamide] | ≤ 5 µM
29 | Cc1ccc(C(=O)NC2CC2)cc1-c1ccc2c(N3CCS(=O)(=O)CC3)nncc2c1 [Example 133, N-cyclopropyl-3-[1-(1,1-dioxidothiomorpholin-4-yl)phthalazin-6-yl]-4-methylbenzamide] | ≤ 5 µM
30 | Cc1ccc(C(=O)NC2CC2)cc1-c1ccc2c(N3CCSCC3)nncc2c1 [Example 134, N-cyclopropyl-4-methyl-3-(1-thiomorpholin-4-ylphthalazin-6-yl)benzamide] | ≤ 5 µM
31 | Cc1cc(F)c(C(=O)NC2CC2)cc1-c1ccc2c(N3C[C@@H](C)OC[C@H]3C)nncc2c1 [Example 135, N-cyclopropyl-5-{1-[(2R,5R)-2,5-dimethylmorpholin-4-yl]phthalazin-6-yl}-2-fluoro-4-methylbenzamide] | ≤ 5 µM
32 | Cc1ccc(C(=O)NC2CC2)cc1-c1ccc2c(N3CC[C@H]4CCCC[C@H]4C3)nncc2c1 [Example 136, 3-{1-[(4aR,8aR)-octahydroisoquinolin-2(1H)-yl]phthalazin-6-yl}-N-cyclopropyl-4-methylbenzamide] | ≤ 5 µM
